Results taken from patent US20030113810A1, “Novel assay” (priority 2000, published 2003).
Where two headings read alike, the source gives them in different places.

Tests used:
[1] = biological target: T1, rGPR41 (Rattus norvegicus, UniProt B2GV46); experiment: Yeast FUS1-lacZ/FUS1-HIS3 reporter assay, rGPR41 in S. cerevisiae MMY22 (Gpa1/Gαo), FDG substrate; format: cell-based; parameters: expressed in transfected cells; host or cells: S. cerevisiae MMY22 (A1, A5; Gpa1/Gαo integrated) or MMY11 + pRS314-Gpa1/Gαo (A4), transformed with p426GPD-rGPR41
T1 sequence (B2GV46 1-319): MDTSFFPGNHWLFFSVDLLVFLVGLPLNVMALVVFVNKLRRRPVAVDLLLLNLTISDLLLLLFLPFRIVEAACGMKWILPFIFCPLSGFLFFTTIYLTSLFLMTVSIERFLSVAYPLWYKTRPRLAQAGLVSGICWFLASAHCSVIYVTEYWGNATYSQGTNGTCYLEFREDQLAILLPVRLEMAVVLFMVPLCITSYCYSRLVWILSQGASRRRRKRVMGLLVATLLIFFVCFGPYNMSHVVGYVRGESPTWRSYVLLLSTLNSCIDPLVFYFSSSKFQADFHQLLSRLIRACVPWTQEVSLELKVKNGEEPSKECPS
Method: A study was carried out of the function of rGPR41 following expression in S. cerevisiae MMY22, which is a derivative of S. cerevisiae MMY11 containing a copy of the gene encoding the Gpa1/Gαo transplant chimera described above (in which the 5 C-terminal amino acids of Gpa1 are replaced with the 5 C-terminal amino acids of Gαo) integrated into the genome. To do this, a cassette comprising the GPA1 promoter, nucleotide sequence encoding Gpa1/Gαo, and the terminator was sub-cloned from pRS314-Gpa1/Gαo into the yeast integrating plasmid pRS304 (Sikorski and Hieter, 1989). The resulting plasmid pRS304-Gpa1/Gαo was transformed into MMY11 and integrated into the trp1 locus creating MMY22.
The rGPR41 expression construct described above, p462GPD-rGPR41 was introduced into MMY22 by transformation as described above. Four separate transformants were tested for reporter gene activation in response to propionate. Assays for FUS1-lacZ and FUS1-HIS3 induction were performed as described, except the β-galactosidase (lacZ) substrate fluorescein di-β-D-galactopyranoside (FDG) was used in place of CPRG, and 3-aminotriazole concentration was 5 mM. Also, black-walled 96-well microtitre plates were used, and fluorescence resulting from degradation of FDG to fluorescein due to β-galactosidase was determined using a Spectrofluor microtitre plate reader (Tecan)(excitation wavelength: 485 nm; emmision wavelength: 535 nm).
A series of carboxylic acids and other compounds related to propionate were tested for the ability to activate rGPR41. Experiments were performed as described above, using yeast cells of strain MMY22 transformed with rGPR41 expression plasmid p462GPD-rGPR41, except that the agonist propionate was replaced with one of a series of other compounds, which are listed in table 2 below.
In vivo assays of reporter gene induction were carried out by suspending MMY11 cells transformed as described above to a density of 0.02 OD600/ml in 200 μl SC-glucose (2%) medium lacking tryptophan, uracil and histidine. This medium was supplemented with 10 mM 3-aminotriazole and the β-galactosidase (lacZ) substrate chlorophenolred-β-D-galactopyranoside (CPRG; Boehringer Mannheim) to a concentration of 0.1 mg/ml. Additionally the medium was supplemented with various concentrations of the agonist ligand, propionate (sodium propionate, pH 7.0). To visualise the yellow to red colour change reaction occurring on degradation of CPRG due to β-galactosidase, the medium was buffered to pH 7 with 0.1 M sodium phosphate. The assay was conducted in flat-bottomed sterile 96-well microtitre plates. Plates were incubated for 24 hours at 30° C. without agitation, and absorbance at 570 nm was determined using a Spectrofluor microtitre plate reader (Tecan).

[2] = test system: isoprenaline-stimulated adenylate cyclase activity in rat primary adipocytes; details: 10 minutes at 37° C., FIG. 11
Method: Isoprenaline stimulates adenylate cyclase activity and subsequently the process of lipolysis following activation of β-adrenoceptors and G,a in adipocytes.
A reaction mixture of 500 μl was used in a 1.5 ml eppendorf tube. The reaction was started by the addition of 100 μl of adipocytes to a 400 μl volume of Krebs buffer containing isoprenaline and test compound. Following the addition of the adipocytes the reaction tube was incubated at 37° C. for 10 minutes. The reaction was stopped with the addition of 500 μl of a stop mixture containing methanol (1 part), chloroform (2 parts) and 0.1N HCl (0.1 part). Following the addition of the stop mixture each tube was vortexed and then centifuged at 5000 rpm for 5 minutes. 300 μl of the supernatent was removed and stored at −20° C. The levels of cAMP in each samples were determined using an ELISA kit from R&D systems (DE0355).

[3] = biological target: T2, human GPR41 (Homo sapiens, UniProt O14843)
T2 sequence (O14843 1-346): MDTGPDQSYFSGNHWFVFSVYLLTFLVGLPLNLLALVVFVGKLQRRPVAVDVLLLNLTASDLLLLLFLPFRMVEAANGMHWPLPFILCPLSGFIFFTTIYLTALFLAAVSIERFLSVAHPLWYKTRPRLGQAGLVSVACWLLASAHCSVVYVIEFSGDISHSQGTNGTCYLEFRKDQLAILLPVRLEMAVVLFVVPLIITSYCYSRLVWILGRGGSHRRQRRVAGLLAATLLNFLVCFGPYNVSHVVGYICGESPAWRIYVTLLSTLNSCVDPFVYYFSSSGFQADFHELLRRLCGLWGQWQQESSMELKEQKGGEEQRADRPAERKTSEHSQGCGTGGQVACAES
Method: HEK293T cells (HEK293 cells stably expressing the SV40 large T-antigen) were maintained in DMEM containing 10% (v/v) foetal calf serum and 2 mM glutamine. Cells were seeded in 60 mm culture dishes and grown to 60-80% confluency (18-24 h) prior to transfection with pCDNA3 containing the relevant DNA species using Lipofectamine reagent. For transfection, 3 μg of DNA was mixed with 10 μl of Lipofectamine in 0.2 ml of Opti-MEM (Life Technologies Inc.) and was incubated at room temperature for 30 min prior to the addition of 1.6 ml of Opti-MEM. Cells were exposed to the Lipofectamine/DNA mixture for 5 h and 2 ml of 20% (v/v) newborn calf serum in DMEM was then added. Cells were harvested 48-72 h after transfection.
Plasma membrane-containing P2 particulate fractions were prepared from cell pastes frozen at −80° C. after harvest. All procedures were carried out at 4° C. Cell pellets were resuspended in 1 ml of 10 mM Tris-HCl and 0.1 mM EDTA, pH 7.5 (buffer A) and by homogenisation for 20 s with a polytron homogeniser followed by passage (5 times) through a 25-guage needle. Cell lysates were centrifuged at 1,000 g for 10 min in a microcentrifuge to pellet the nuclei and unbroken cells and P2 particulate fractions were recovered by microcentrifugation at 16,000 g for 30 min. P2 particulate fractions were resuspended in buffer A and stored at −80° C. until required. Protein concentrations were determined using the bicinchoninic acid (BCA) procedure (4) using BSA as a standard.
Assays were performed in 96-well format using a method modified from Wieland and Jakobs, 1994. Membranes (10 μg per point) were diluted to 0.083 mg/ml in assay buffer (20 mM HEPES, 100 mM NaCl, 10 mM MgCl2, pH7.4) supplemented with saponin (10 mg/l) and pre-incubated with 40 μM GDP. […] Non-specific binding was determined by the inclusion of 0.6 mM GTP. […] Plates were centrifuged at 1500 g for 5 min and bound [^35S]GTPγS was determined by scintillation counting on a Wallac 1450 microbeta Trilux scintillation counter.

[4] = biological target: T1, rGPR41; experiment: Yeast reporter gene induction, MMY11 cells with p426GPD-rGPR41 and pRS314-Gpa1/Gαo, CPRG substrate; format: cell-based; details: MMY11, Gpa1/Gαo transplant; FIG. 6
Source text: Significant absorbance at 570 nm, corresponding to induction of FUS1-lacZ and FUS1-HIS3 reporter genes, was detected for MMY11 cells containing p426GPD-rGPR41 in combination with pRS314-Gpa1/Gαo. These cells express rGPR41 in combination with a Gα subunit identical to Gpa1 but in which the 5 C-terminal amino acids are replaced with the 5 C-terminal amino acids of the mammalian Gα subunit, Gαo. This response is dependant on the presence of the agonist ligand propionate since no induction is detected in the absence of propionate (FIG. 6). […] Of the other Gα subunits tested, the pRS314-Gpa1/Gα12 and pRS314-Gpa1/Gα13 transplants supported weak rGPR41 coupling detectable after 48 hrs incubation (data not shown), and with no other Gα subunit could ligand responses of rGPR41 be detected.
The yeast strain MMY11 has been described previously (Olesnicky et al, 1999). […]
In vivo assays of reporter gene induction were carried out by suspending MMY11 cells transformed as described above to a density of 0.02 OD600/ml in 200 μl SC-glucose (2%) medium lacking tryptophan, uracil and histidine. […] Plates were incubated for 24 hours at 30° C. without agitation, and absorbance at 570 nm was determined using a Spectrofluor microtitre plate reader (Tecan).

[5] = yeast MMY22 with p462GPD-rGPR41, FDG fluorescence, compounds as salt solutions buffered to pH 7.0, read-out: Agonism @ rGPR41 Approx. EC50

Row | SMILES | EC50 [1, 5] | isoprenaline-amplified cAMP levels [2] | stimulation of [35S]GTPγS binding [3] | induction of FUS1-lacZ and FUS1-HIS3 reporter genes (absorbance at 570 nm) [4] | fluorescence, activation of the pheromone response pathway by rGPR41 ([1]; MMY22, four transformants, FIG. 7) | EC50 ([1]; yeast MMY22, text of Example 8, read-out: EC50 value at rGPR41) | stimulation of [35S]GTPγS binding ([3]; membranes of HEK293T cells, human GPR41 + Go1α, FIG. 2-4)
1 | CC(=O)O [Acetate] | ~1000 µM | reduction of isoprenaline-amplified cAMP levels | stimulation of [^35S]GTPγS binding |  |  |  | 
2 | CCC(=O)O [Propionate] | ~5 µM |  |  | can be activated by propionate | dependent on the concentration of propionate | 5 µM | most potent and efficacious
